Measured values taken from patent US10561736B1, “Apoptosis inhibitor formulations for prevention of hearing loss” (Spiral Therapeutics, Inc., priority 2019, dated 2020).

Key:
rats = assay: GLP auditory safety study after single IT administration; type: in vivo, rat
Experimental: Gross observations were recorded, and selected organs were weighed.

HEI-OC1 cells = assay: release of mitochondrial Cytc in HEI-OC1 cells with CisPt (flow cytometry); type: cell-based; conditions: HEI-OC1 cells, CisPt alone vs pre-incubated with LPT99, flow cytometry
Experimental: Flow cytometry was also used to characterize the effect of LPT99 in the release of mitochondrial Cytc in HEI-OC1 cells in vitro with CisPt prevention.
The effect of LPT99 on proliferation of non-apoptotic cells was studied. A549 cells were cultured in the presence of LPT99 for up to 6 days; the cell number was monitored by flow cytometry, and doubling time was calculated.

| Compound | weight-normalized heart weights (rats; male rats, 400 mg/mL gentamicin, Day 14, vs saline controls) | otoscopic examination of the tympanic membranes (erythema, edema, wounds) (rats; rat, single IT, Days 1, 7, 14, vs control) | mortalities, clinical abnormalities, body weight, food intake, clinical pathologies (rats; rat, single bilateral IT 30 μL per ear, 14-day study) | release of mitochondrial Cytc (HEI-OC1 cells) |
| --- | --- | --- | --- | --- |
| gentamicin [reference compound] | statistically significant (p≤0.05) increased weight-normalized heart weights | increases in otoscopic scores | no LPT99- or gentamicin-related mortalities |  |
| N.N.[Cl][Pt][Cl] [CisPt, cisplatin, reference compound] |  |  |  | 28%±6.6% |
